Results reported in publication PMC9005971, “Discovery of 2-(4-Acrylamidophenyl)-Quinoline-4-Carboxylic Acid Derivatives as Potent SIRT3 Inhibitors” (Frontiers in Chemistry, 2022).

Tests used:
SIRT2 = biological target: T1, SIRT2 (Homo sapiens, UniProt Q8IXJ6); assay: SIRT2 enzyme inhibitory assay (fluorescence); assay type: biochemical; conditions: for activity at 0.01 µM / activity at 0.033 µM / activity at 0.1 µM / activity at 0.333 µM / activity at 1 µM / activity at 3.3 µM / activity at 10 µM / activity at 33 µM / activity at 100 µM: SIRT2 enzyme activity; for activity at 0.01 µM: 10 nM; for activity at 0.033 µM: 33 nM; for activity at 0.1 µM: 100 nM; for activity at 0.333 µM: 333 nM
T1 sequence (Q8IXJ6 1-389): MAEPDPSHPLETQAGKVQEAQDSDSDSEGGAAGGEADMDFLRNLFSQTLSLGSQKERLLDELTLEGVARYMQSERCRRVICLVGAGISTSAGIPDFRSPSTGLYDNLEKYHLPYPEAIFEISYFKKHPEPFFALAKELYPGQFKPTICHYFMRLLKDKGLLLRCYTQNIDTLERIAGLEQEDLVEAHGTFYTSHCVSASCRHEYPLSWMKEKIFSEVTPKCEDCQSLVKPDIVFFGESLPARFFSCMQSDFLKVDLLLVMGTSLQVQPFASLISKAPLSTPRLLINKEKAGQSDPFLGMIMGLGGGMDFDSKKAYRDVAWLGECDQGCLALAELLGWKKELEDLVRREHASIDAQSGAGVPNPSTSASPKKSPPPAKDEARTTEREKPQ
Experimental: (§1) All of the enzymatic reactions were conducted at 37°C for 30 min. […] The compounds were diluted in 10% DMSO and 5 ul of the dilution was added to each reaction mixture (50 ul). The assay was performed by quantitating the amount of fluorescent product generated from the enzyme reaction. Fluorescence intensity is then analyzed at excitation wavelength of 350–360 nm and emission wavelength of 450–460 nm on a SpectraMax M5 microtiter plate reader. The IC50 values were calculated using Prism GraphPad software.

SIRT1 = biological target: T2, SIRT1 (Homo sapiens, UniProt Q96EB6); assay: SIRT1 enzyme inhibitory assay (fluorescence); assay type: biochemical; conditions: for activity at 0.01 µM / activity at 0.033 µM / activity at 0.1 µM / activity at 0.333 µM / activity at 1 µM / activity at 3.3 µM / activity at 10 µM / activity at 33 µM / activity at 100 µM: SIRT1 enzyme activity; for activity at 0.01 µM: 10 nM; for activity at 0.033 µM: 33 nM; for activity at 0.1 µM: 100 nM; for activity at 0.333 µM: 333 nM
T2 sequence (Q96EB6 1-747): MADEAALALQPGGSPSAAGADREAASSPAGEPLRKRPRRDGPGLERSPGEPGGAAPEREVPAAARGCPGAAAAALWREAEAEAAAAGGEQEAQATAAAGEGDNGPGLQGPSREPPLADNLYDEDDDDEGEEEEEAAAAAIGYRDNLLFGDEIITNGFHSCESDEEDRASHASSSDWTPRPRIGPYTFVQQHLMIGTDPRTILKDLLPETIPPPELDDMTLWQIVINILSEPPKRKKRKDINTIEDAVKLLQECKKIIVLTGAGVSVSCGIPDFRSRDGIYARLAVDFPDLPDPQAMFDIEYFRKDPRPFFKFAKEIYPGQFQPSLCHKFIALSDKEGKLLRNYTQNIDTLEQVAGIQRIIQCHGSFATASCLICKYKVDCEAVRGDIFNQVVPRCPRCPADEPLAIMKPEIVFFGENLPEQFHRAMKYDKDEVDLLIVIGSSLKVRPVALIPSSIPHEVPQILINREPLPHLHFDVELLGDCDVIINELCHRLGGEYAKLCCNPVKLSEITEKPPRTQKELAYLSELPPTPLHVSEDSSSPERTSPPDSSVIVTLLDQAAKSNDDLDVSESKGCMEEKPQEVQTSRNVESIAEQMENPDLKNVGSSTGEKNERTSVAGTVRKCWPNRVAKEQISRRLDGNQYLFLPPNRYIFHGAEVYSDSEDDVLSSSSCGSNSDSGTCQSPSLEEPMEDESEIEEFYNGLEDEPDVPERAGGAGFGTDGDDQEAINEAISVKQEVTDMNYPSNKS
Experimental: as §1

[1] = system: THP-1, MOLM-13, SEM and MV4-11 cells; assay: Cell cycle analysis, MLLr leukemic cells; assay type: cell-based; conditions: 0.9–2.0 µM
Experimental: THP-1, MOLM-13, SEM and MV4-11 cells were incubated with 1.0 (THP-1, MOLM-13 cells) and 2.0 (SEM and MV4-11 cells) µM of P6 for 72 h. After treatment, cells were collected and fixed with 70% pre-cold ethanol in PBS and stored at −20°C for at least 24 h. Then the cells were stained with […] RNase A for 30 min in the dark at room temperature. Finally, flow cytometry was used to detect the percentage of cells in the sub-G1, G0/G1, S, and G2/M phases with a Beckman Coulter DxFLEX flow cytometer (Florida, Miami, USA). The data was analyzed and fitted by ModFit software.

[2] = system: THP-1, MOLM-13, SEM and MV4-11 cells; assay: Cell morphology / differentiation (Wright-Giemsa staining); assay type: cell-based; conditions: 72 h
Experimental: THP-1, MOLM-13, SEM and MV4-11 cells were incubated with P6 or Ara-C for 72 h and then collected. Slides were made by cytospin and subsequently air dried. The cells were stained with Wright-Giemsa and observed for morphological features using a light microscope.

In the case of `C=CC(=O)Nc1ccc(-c2cc(C(=O)N3CCN(c4ccccc4F)CC3)c3ccccc3n2)cc1` [Compound P6, N-(4-{4-[4-(2-Fluoro-phenyl)-piperazine-1-carbonyl]-quinolin-2-yl}-phenyl)-acrylamide], the activity at 0.01 µM (SIRT2; Repeat1) is reported as 100%, the activity at 0.01 µM (SIRT2; Repeat2) is reported as 98% and the activity at 0.033 µM (SIRT2; Repeat1) is reported as 96%. It also gave an activity at 0.033 µM (SIRT2; Repeat2) of 100%, an activity at 0.1 µM (SIRT2; Repeat1) of 101% and an activity at 0.1 µM (SIRT2; Repeat2) of 101%. For the same molecule, the activity at 0.333 µM (SIRT2; Repeat1) was 100%, the activity at 0.333 µM (SIRT2; Repeat2) was 95% and the activity at 1 µM (SIRT2; Repeat1) was 93%. The activity at 1 µM (SIRT2; Repeat2) was 83%, the activity at 3.3 µM (SIRT2; Repeat1) was 83% and the activity at 3.3 µM (SIRT2; Repeat2) was 73%. It also gave an activity at 10 µM (SIRT2; Repeat1) of 64%, an activity at 10 µM (SIRT2; Repeat2) of 65% and an activity at 33 µM (SIRT2; Repeat1) of 51%. It also gave an activity at 33 µM (SIRT2; Repeat2) of 48%, an activity at 100 µM (SIRT2; Repeat1) of 36% and an activity at 100 µM (SIRT2; Repeat2) of 39%. It also gave an IC50 (SIRT2; mean of two experiments) of 33.5 ± 1.6 µM, an activity at 0.01 µM (SIRT1; Repeat1) of 98% and an activity at 0.01 µM (SIRT1; Repeat2) of 102%. It also gave an activity at 0.033 µM (SIRT1; Repeat1) of 97%, an activity at 0.033 µM (SIRT1; Repeat2) of 98% and an activity at 0.1 µM (SIRT1; Repeat1) of 100%. The activity at 0.1 µM (SIRT1; Repeat2) was 97%, the activity at 0.333 µM (SIRT1; Repeat1) was 101% and the activity at 0.333 µM (SIRT1; Repeat2) was 95%. The activity at 1 µM (SIRT1; Repeat1) was 97%, the activity at 1 µM (SIRT1; Repeat2) was 89% and the activity at 3.3 µM (SIRT1; Repeat1) was 91%. The activity at 3.3 µM (SIRT1; Repeat2) was 85%, the activity at 10 µM (SIRT1; Repeat1) was 61% and the activity at 10 µM (SIRT1; Repeat2) was 64%. It also gave an activity at 33 µM (SIRT1; Repeat1) of 42%, an activity at 33 µM (SIRT1; Repeat2) of 40% and an activity at 100 µM (SIRT1; Repeat1) of 25%. For the same molecule, the activity at 100 µM (SIRT1; Repeat2) was 26%, the IC50 (SIRT1; mean of two experiments) was 32.6 ± 0.8 µM and the “effect on cell cycle progression” value [1] was “capable of causing MLLr leukemic cell cycle arrest at G0/G1 phase”. The “cell differentiation / morphology” value [2] was “induced the cell differentiation accompanied with morphological changes”.
